Source: patent publication US20240132484A1, “BROAD SPECTRUM ANTIVIRAL COMPOUNDS TARGETING THE SKI COMPLEX” (priority 2020, published 2024)
Where “and” joins values, the source holds several entries; their conditions need not be identical. Identical values can stand only once. Like-named read-outs stand apart in the source and are kept apart here.

Tests used:
cells (nuclei count) = conditions: for Toxicity Data, Average, Mean (percentage relative to appropriate DMSO control): average of Exp 1 and Exp 2, n=4; for Relative cell count to DMSO controls, Average 1 μM / Relative cell count to DMSO controls, Average 5 μM / Relative cell count to DMSO controls, Average 10 μM / Relative cell count to DMSO controls, Average 25 μM / Relative cell count to DMSO controls, Average 50 μM: toxicity data, 100=DMSO control; for Relative cell count to DMSO controls, Average (for correlation analysis): average value over the 5 tested concentrations (1 to 50 uM)
SARS2 = format: cell-based, SARS-CoV-2; conditions: for Infection Data, Percentage Infection Relative to Appropriate DMSO Control with Avg Background Subtraction: duplicate wells; for Infection Data, Average, Mean (Percentage Infection Relative to Appropriate DMSO Control): average of Exp 1 and Exp 2, n=4; for Percentage Inhibition Average 1 μM / Screening data (Relative infection to DMSO controls) Average 1 μM: SARS2, 1 μM; for Screening data (Relative infection to DMSO controls) Average 1 μM / Screening data (Relative infection to DMSO controls) Average 5 μM / Screening data (Relative infection to DMSO controls) Average 10 μM / Screening data (Relative infection to DMSO controls) Average 25 μM / Screening data (Relative infection to DMSO controls) Average 50 μM / Average (relative infection to DMSO over the 5 tested concentrations): 100=DMSO control; for Percentage Inhibition Average 5 μM / Screening data (Relative infection to DMSO controls) Average 5 μM: SARS2, 5 μM; for Percentage Inhibition Average 10 μM / Screening data (Relative infection to DMSO controls) Average 10 μM: SARS2, 10 μM; for Percentage Inhibition Average 25 μM / Screening data (Relative infection to DMSO controls) Average 25 μM: SARS2, 25 μM; for Percentage Inhibition Average 50 μM / Screening data (Relative infection to DMSO controls) Average 50 μM: SARS2, 50 μM; for Average (relative infection to DMSO over the 5 tested concentrations): SARS2, average over 1 to 50 uM

SMILES: CC1=C(C(=O)NC2CCCCCC2)C(c2cccs2)NC(=O)N1 (stereo not drawn) [SILCS61]
- Toxicity Data, Average, Mean (percentage relative to appropriate DMSO control) (cells (nuclei count); 1 uM): 106.46%
- Relative cell count to DMSO controls, Average 1 μM (cells (nuclei count)): 106.46
- Toxicity Data, Average, Mean (percentage relative to appropriate DMSO control) (cells (nuclei count); 5 uM): 110.71%
- Relative cell count to DMSO controls, Average 5 μM (cells (nuclei count)): 110.71
- Toxicity Data, Average, Mean (percentage relative to appropriate DMSO control) (cells (nuclei count); 10 uM): 107.86%
- Relative cell count to DMSO controls, Average 10 μM (cells (nuclei count)): 107.86
- Toxicity Data, Average, Mean (percentage relative to appropriate DMSO control) (cells (nuclei count); 25 uM): 109.52%
- Relative cell count to DMSO controls, Average 25 μM (cells (nuclei count)): 109.52
- Toxicity Data, Average, Mean (percentage relative to appropriate DMSO control) (cells (nuclei count); 50 uM): 104.46%
- Relative cell count to DMSO controls, Average 50 μM (cells (nuclei count)): 104.46
- Relative cell count to DMSO controls, Average (for correlation analysis) (cells (nuclei count)): 107.80
- Infection Data, Percentage Infection Relative to Appropriate DMSO Control with Avg Background Subtraction (SARS2; 1 uM, Exp 1 (SMW506), listed as SICLS61): 73.61% and 82.18%
- Infection Data, Percentage Infection Relative to Appropriate DMSO Control with Avg Background Subtraction (SARS2; 1 uM, Exp 2 (SMW492), SILCS 61-66 and 67-72 plates, listed as SICLS61): 57.97% and 58.62%
- Infection Data, Average, Mean (Percentage Infection Relative to Appropriate DMSO Control) (SARS2; 1 uM): 68.10%
- Infection Data, Percentage Infection Relative to Appropriate DMSO Control with Avg Background Subtraction (SARS2; 5 uM, Exp 1 (SMW506), listed as SICLS61): 41.43% and 63.29%
- Infection Data, Percentage Infection Relative to Appropriate DMSO Control with Avg Background Subtraction (SARS2; 5 uM, Exp 2 (SMW492), SILCS 61-66 and 67-72 plates, listed as SICLS61): 38.94% and 52.11%
- Infection Data, Average, Mean (Percentage Infection Relative to Appropriate DMSO Control) (SARS2; 5 uM): 48.94%
- Infection Data, Percentage Infection Relative to Appropriate DMSO Control with Avg Background Subtraction (SARS2; 10 uM, Exp 1 (SMW506), listed as SICLS61): 73.81% and 87.85%
- Infection Data, Percentage Infection Relative to Appropriate DMSO Control with Avg Background Subtraction (SARS2; 10 uM, Exp 2 (SMW492), SILCS 61-66 and 67-72 plates, listed as SICLS61): 33.45% and 32.58%
- Infection Data, Average, Mean (Percentage Infection Relative to Appropriate DMSO Control) (SARS2; 10 uM): 56.92%
- Infection Data, Percentage Infection Relative to Appropriate DMSO Control with Avg Background Subtraction (SARS2; 25 uM, Exp 1 (SMW506), listed as SICLS61): 51.60% and 90.77%
- Infection Data, Average, Mean (Percentage Infection Relative to Appropriate DMSO Control) (SARS2; 25 uM): 43.41%
- Infection Data, Percentage Infection Relative to Appropriate DMSO Control with Avg Background Subtraction (SARS2; 50 uM, Exp 1 (SMW506), listed as SICLS61): −4.48% and −4.80%
- Infection Data, Percentage Infection Relative to Appropriate DMSO Control with Avg Background Subtraction (SARS2; 50 uM, Exp 2 (SMW492), SILCS 61-66 and 67-72 plates, listed as SICLS61): 11.69% and 10.06%
- Infection Data, Average, Mean (Percentage Infection Relative to Appropriate DMSO Control) (SARS2; 50 uM): 3.12%
- Percentage Inhibition Average 1 μM (SARS2): 31.90%
- Screening data (Relative infection to DMSO controls) Average 1 μM (SARS2): 68.10
- Percentage Inhibition Average 5 μM (SARS2): 51.06%
- Screening data (Relative infection to DMSO controls) Average 5 μM (SARS2): 48.94
- Percentage Inhibition Average 10 μM (SARS2): 43.08%
- Screening data (Relative infection to DMSO controls) Average 10 μM (SARS2): 56.92
- Percentage Inhibition Average 25 μM (SARS2): 56.59%
- Screening data (Relative infection to DMSO controls) Average 25 μM (SARS2): 43.41
- Percentage Inhibition Average 50 μM (SARS2): 96.88%
- Screening data (Relative infection to DMSO controls) Average 50 μM (SARS2): 3.12
- Average (relative infection to DMSO over the 5 tested concentrations) (SARS2): 44.10

SMILES: CC1=C(C(=O)NCC2CCC2)C(c2cccs2)NC(=O)N1 (stereo not drawn) [SILCS62]
- Toxicity Data, Average, Mean (percentage relative to appropriate DMSO control) (cells (nuclei count); 1 uM): 112.47%
- Relative cell count to DMSO controls, Average 1 μM (cells (nuclei count)): 112.47
- Toxicity Data, Average, Mean (percentage relative to appropriate DMSO control) (cells (nuclei count); 5 uM): 123.92%
- Relative cell count to DMSO controls, Average 5 μM (cells (nuclei count)): 123.92
- Toxicity Data, Average, Mean (percentage relative to appropriate DMSO control) (cells (nuclei count); 10 uM): 116.29%
- Relative cell count to DMSO controls, Average 10 μM (cells (nuclei count)): 116.29
- Toxicity Data, Average, Mean (percentage relative to appropriate DMSO control) (cells (nuclei count); 25 uM): 106.51%
- Relative cell count to DMSO controls, Average 25 μM (cells (nuclei count)): 106.51
- Toxicity Data, Average, Mean (percentage relative to appropriate DMSO control) (cells (nuclei count); 50 uM): 98.08%
- Relative cell count to DMSO controls, Average 50 μM (cells (nuclei count)): 98.08
- Relative cell count to DMSO controls, Average (for correlation analysis) (cells (nuclei count)): 111.45
- Infection Data, Percentage Infection Relative to Appropriate DMSO Control with Avg Background Subtraction (SARS2; 1 uM, Exp 1 (SMW506), listed as SICLS62): 84.10% and 102.05%
- Infection Data, Percentage Infection Relative to Appropriate DMSO Control with Avg Background Subtraction (SARS2; 1 uM, Exp 2 (SMW492), SILCS 61-66 and 67-72 plates, listed as SICLS62): 50.01% and 36.38%
- Infection Data, Average, Mean (Percentage Infection Relative to Appropriate DMSO Control) (SARS2; 1 uM): 68.14%
- Infection Data, Percentage Infection Relative to Appropriate DMSO Control with Avg Background Subtraction (SARS2; 5 uM, Exp 1 (SMW506), listed as SICLS62): 45.05% and 53.24%
- Infection Data, Percentage Infection Relative to Appropriate DMSO Control with Avg Background Subtraction (SARS2; 5 uM, Exp 2 (SMW492), SILCS 61-66 and 67-72 plates, listed as SICLS62): 9.05% and 14.15%
- Infection Data, Average, Mean (Percentage Infection Relative to Appropriate DMSO Control) (SARS2; 5 uM): 30.37%
- Infection Data, Percentage Infection Relative to Appropriate DMSO Control with Avg Background Subtraction (SARS2; 10 uM, Exp 1 (SMW506), listed as SICLS62): 84.98% and 89.35%
- Infection Data, Percentage Infection Relative to Appropriate DMSO Control with Avg Background Subtraction (SARS2; 10 uM, Exp 2 (SMW492), SILCS 61-66 and 67-72 plates, listed as SICLS62): 5.57% and 5.50%
- Infection Data, Average, Mean (Percentage Infection Relative to Appropriate DMSO Control) (SARS2; 10 uM): 46.35%
- Infection Data, Percentage Infection Relative to Appropriate DMSO Control with Avg Background Subtraction (SARS2; 25 uM, Exp 1 (SMW506), listed as SICLS62): 83.54% and 119.74%
- Infection Data, Percentage Infection Relative to Appropriate DMSO Control with Avg Background Subtraction (SARS2; 25 uM, Exp 2 (SMW492), SILCS 61-66 and 67-72 plates, listed as SICLS62): 1.62% and 0.75%
- Infection Data, Average, Mean (Percentage Infection Relative to Appropriate DMSO Control) (SARS2; 25 uM): 51.41%
- Infection Data, Percentage Infection Relative to Appropriate DMSO Control with Avg Background Subtraction (SARS2; 50 uM, Exp 2 (SMW492), SILCS 61-66 and 67-72 plates, listed as SICLS62): −0.82% and 2.34%
- Infection Data, Average, Mean (Percentage Infection Relative to Appropriate DMSO Control) (SARS2; 50 uM): 23.88%
- Percentage Inhibition Average 1 μM (SARS2): 31.86%
- Screening data (Relative infection to DMSO controls) Average 1 μM (SARS2): 68.14
- Percentage Inhibition Average 5 μM (SARS2): 69.63%
- Screening data (Relative infection to DMSO controls) Average 5 μM (SARS2): 30.37
- Percentage Inhibition Average 10 μM (SARS2): 53.65%
- Screening data (Relative infection to DMSO controls) Average 10 μM (SARS2): 46.35
- Percentage Inhibition Average 25 μM (SARS2): 48.59%
- Screening data (Relative infection to DMSO controls) Average 25 μM (SARS2): 51.41
- Percentage Inhibition Average 50 μM (SARS2): 76.12%
- Screening data (Relative infection to DMSO controls) Average 50 μM (SARS2): 23.88
- Average (relative infection to DMSO over the 5 tested concentrations) (SARS2): 44.03
